In US4771068A, “Mitomycin derivatives having anti-tumor and antibacterial utility” (priority 1985, dated 1988):
≈ marks a conversion by molar mass, not a printed value.

Experiments:
[1] = test system: Streptococcus faecalis ATCC 10541; experiment: Antibacterial activity (minimum growth inhibitory concentration), agar dilution method; assay type: cell-based; settings: Enterococcus faecalis, ATCC10541; Streptococcus faecalis ATCC 10541, pH 7.0, agar dilution method; read-out: minimum growth inhibitory concentration, SF
Method: (§1) Antibacterial activities of Compounds (I) against various bacteria are shown by the minimum growth inhibitory concentration (μg/ml) in Table 3. The minimum growth inhibitory concentration was measured at pH 7.0 according to the agar dilution method. In the table, bacteria are indicated by the following letters.
SF: Streptococcus faecalis ATCC 10541

[2] = test system: Staphylococcus aureus ATCC 6538P; experiment: as above; assay type: cell-based; settings: ATCC6538P, pH 7.0, agar dilution method, read-out: minimum growth inhibitory concentration, SA
Method: as §1
SA: Staphylococcus aureus ATCC 6538P

Bacillus subtilis 10707 = experiment: as above; assay type: cell-based; settings: Bacillus subtilis 10707, pH 7.0, agar dilution method; read-out: minimum growth inhibitory concentration, BS
Method: as §1
BS: Bacillus subtilis 10707

[3] = test system: Proteus vulgalis ATCC 6897; experiment: as above; assay type: cell-based; settings: pH 7, read-out: minimum growth inhibitory concentration, PV
Method: as §1
PV: Proteus vulgalis ATCC 6897

[4] = test system: Klebsiella pneumoniae ATCC 10031; experiment: as above; assay type: cell-based; settings: ATCC10031; Klebsiella pneumoniae ATCC 10031, pH 7.0, agar dilution method; read-out: minimum growth inhibitory concentration, KP
Method: as §1
KP: Klebsiella pneumoniae ATCC 10031

Sarcoma 180 solid tumour = experiment: animal or person; settings: for CIc: CI of test compound divided by CI of mitomycin C as control in the same condition; for ED50: Mus musculus, Sarcoma-180, iv, 168 h; for CI (LD50/ED50): chemotherapeutic index
Excerpt: CIc : Value given by division of CI of each test compound by CI of
determination of antitumour activity of the test compound. A CIc
5×10^6 cells of Sarcoma 180 solid tumour were intraperitoneally implanted into ddY mice. 7 days later, ascites cells were sampled. The cells were washed once with a sterilized physiological sodium chloride solution and were used to prepare a cell suspension containing 5×10^7 cells per ml with a sterilized physiological sodium chloride solution. On each occasion, 0.1 ml of the cell suspension was subcutaneously implanted into the right axilla of a male mouse (ddY strain; body weight 20±2 g).
The anti-tumour activity was determined in the following manner. 7 days after the implantation, the major axis (a) and the minor axis (b) of the tumour were measured to calculate a value of "a×b^2 /2" which corresponds to the volume of the tumour. The anti-tumour activity was expressed by the ratio (T/C) of the volume (T) of the tumours of the group of animals administered with the test compound to the corresponding volume (C) of tumours of the untreated animals.
On graph paper, T/C was indicated by an arithmetic scale on the longitudinal axis and the administered amount of the test compound was indicated by a logarithmic scale on the lateral axis.

Acute toxicity = settings: mouse, in vivo, ip; ddY mice, intraperitoneally once, 14 days observation
Method: Each animal of the test group consisting of 5 ddY mice was administered intraperitoneally once with a test compound. […] The LD50 was determined by Beherns Kaerber's method.

peripheral leucocytes = experiment: Effect on the peripheral leucocytes number; assay type: in vivo, mouse (ddY strain); settings: minimum dose reducing peripheral leucocytes number to 4000/mm^3; tumour-carrying ddY mice, intraperitoneal, 4 days after administration
Method: WBC4000 : Minimum dose of a test compound which reduces the
peripheral leucocytes number to 4000/mm^3.
Sarcoma 180 solid tumour cells (5×10^6) were subcutaneously implanted into the right axilla of each mouse (body weight 20±2 g) of a group consisting of 5 male mice (ddY strain). 24 hours after implantation,a test compound was intraperitoneally administered to each animal. 4 days after the administration, blood (each 0.02 ml) was collected from the suborbital plexus vein of each tumour-carrying animal. The collected sample of blood was dispersed in 9.98 ml of Cell-Kit Seven solution. One drop of saponin solution was added to the sample to dissolve erythrocytes and then a microcell counter was used to count the number of leucocytes. […] The relationship between the number of peripheral leucocytes and the dose of the test compound was plotted and the dose (i.e., WBC4000) corresponding to 4000 peripheral leucocytes/mm^3 (about half the number of leucocytes of normal mice) was obtained.

| SMILES | MIC [1] | MIC [2] | MIC (Bacillus subtilis 10707) | MIC [3] | MIC [4] | CIc (Sarcoma 180 solid tumour) | ED50 (Sarcoma 180 solid tumour) | CI (LD50/ED50) (Sarcoma 180 solid tumour) | LD50 at 336 h (Acute toxicity) | WBC4000 (peripheral leucocytes) |
| --- | --- | --- | --- | --- | --- | --- | --- | --- | --- | --- |
| CCC(=O)SCCNC1=C(C)C(=O)C2=C(C1=O)[C@@H](COC(N)=O)[C@@]1(OC)[C@H]3N[C@H]3CN21 [Compound 5] | < 0.02 mg/L | < 0.02 mg/L | < 0.02 mg/L | 1.3 mg/L (≈ 2.89 µM) | 0.31 mg/L (≈ 0.688 µM) | 0.59 | 5 mg/kg | 0.94 | 4.7 mg/kg | > 5 mg/kg |
| CCC(=O)SCCNC1=C(C)C(=O)C2=C(C1=O)[C@H](COC(N)=O)[C@@]1(O)[C@@H]3[C@H](CN21)N3C (stereo partly shown) [Compound 6] | 13 mg/L (≈ 28.9 µM) | 13 mg/L (≈ 28.9 µM) | 0.78 mg/L (≈ 1.73 µM) | 100 mg/L (≈ 222 µM) | 25 mg/L (≈ 55.5 µM) | – | – | – | – | – |
| CO[C@@]12[C@H](COC(N)=O)C3=C(C(=O)C(C)=C(NCCCCCCCCSC(C)=O)C3=O)N1C[C@@H]1N[C@@H]12 [Compound 12] | 5 mg/L (≈ 9.6 µM) | 0.31 mg/L (≈ 0.595 µM) | 0.31 mg/L (≈ 0.595 µM) | 5 mg/L (≈ 9.6 µM) | 1.3 mg/L (≈ 2.5 µM) | 1.3 | 9.7 mg/kg | 4.6 | 45 mg/kg | 19.6 mg/kg |
| CC1=C(NCCSC(=O)c2ccccc2)C(=O)C2=C(C1=O)N1C[C@H]3[C@H](N3C)[C@]1(O)[C@H]2COC(N)=O (stereo partly shown) [Compound 14] | 50 mg/L (≈ 100 µM) | > 100 mg/L | 0.39 mg/L (≈ 0.782 µM) | – | > 100 mg/L | – | – | – | – | – |
| C=C1C2=C(C(=O)C(C)=C(NCCSC(=O)c3ccccc3)C2=O)N2C[C@H]3[C@H](N3C)[C@]12O (stereo partly shown) [Compound 15] | > 100 mg/L | 25 mg/L (≈ 57.1 µM) | 1.6 mg/L (≈ 3.66 µM) | 25 mg/L (≈ 57.1 µM) | 50 mg/L (≈ 114 µM) | ≥ 0.74 | 27.5 mg/kg | ≥ 1.8 | ≥ 50 mg/kg | 27.5 mg/kg |
| CO[C@@]12[C@H](COC(N)=O)C3=C(C(=O)C(C)=C(NCCSC(=O)c4ccccc4)C3=O)N1C[C@H]1[C@@H]2N1C (stereo partly shown) [Compound 16] | 0.63 mg/L (≈ 1.23 µM) | 0.16 mg/L (≈ 0.312 µM) | 0.078 mg/L (≈ 0.152 µM) | > 40 mg/L | 10 mg/L (≈ 19.5 µM) | – | – | – | – | – |
| CO[C@@]12[C@H](COC(N)=O)C3=C(C(=O)C(C)=C(NCCCCCCSC(=O)c4ccccc4)C3=O)N1C[C@@H]1N[C@@H]12 [Compound 17] | 2.5 mg/L (≈ 4.51 µM) | 0.63 mg/L (≈ 1.14 µM) | 0.16 mg/L (≈ 0.288 µM) | > 40 mg/L | 10 mg/L (≈ 18 µM) | > 1.7 | 9.5 mg/kg | > 5.3 | > 50 mg/kg | 32.2 mg/kg |
| CO[C@@]12[C@H](COC(N)=O)C3=C(C(=O)C(C)=C(NCCSC(=O)c4ccc(F)cc4)C3=O)N1C[C@@H]1N[C@@H]12 [Compound 18] | 0.16 mg/L (≈ 0.31 µM) | < 0.02 mg/L | < 0.02 mg/L | 10 mg/L (≈ 19.4 µM) | 5 mg/L (≈ 9.68 µM) | 1.2 | 1.6 mg/kg | 3.8 | 6 mg/kg | 5 mg/kg |
| CC1=C(NCCSC(=O)c2ccc(F)cc2)C(=O)C2=C(C1=O)N1C[C@H]3[C@H](N3C)[C@]1(O)[C@H]2COC(N)=O (stereo partly shown) [Compound 19, 7-N-[2-(4-fluorobenzoylthio)ethyl]mitomycin D] | 100 mg/L (≈ 194 µM) | 6.3 mg/L (≈ 12.2 µM) | 1.6 mg/L (≈ 3.1 µM) | – | – | 0.89 | 5.6 mg/kg | 2.7 | 15 mg/kg | 19.1 mg/kg |
| CO[C@@]12[C@H](COC(N)=O)C3=C(C(=O)C(C)=C(NCCCCCCCCSC(=O)c4ccc(F)cc4)C3=O)N1C[C@@H]1N[C@@H]12 [Compound 20] | 0.63 mg/L (≈ 1.05 µM) | 0.63 mg/L (≈ 1.05 µM) | 0.31 mg/L (≈ 0.516 µM) | > 40 mg/L | 40 mg/L (≈ 66.6 µM) | 1.6 | 16.3 mg/kg | 3.8 | 62.5 mg/kg | 13.0 mg/kg |
